Columns and labels:
G-quadruplexes = experiment: Binding to G-quadruplexes, general statements; conditions: all of the tested G-quadruplexes, ITC, compare Tables 2 and 3
8 bp AT duplex DNA = experiment: UV-visible titration with duplex DNA; format: binding; conditions: ligand 10 μM
Description: UV titration studies of DNA with the triazene ligands, DMZ and Triazene-1. The molar extinction coefficients at 260 nm for 22-mer c-kit1, 18-mer VEGF, 23-mer bcl-2 2345, 15-mer TBA and 20-mer 8 bp AT are as follows 226,700 M^−1 cm^−1, 169,800 M^−1 cm^−1, 227,300 M^−1 cm^−1, 143,300 M^−1 cm^1 and 205,500 M^−1 cm^−1, respectively. The concentration of ligands used in this study was 10 μM and the DNA concentrations were 0, 0.25, 1.5, 3, 5, 6, 7, 8, 9, 10, 20, 30, 40, 50, 100, and 15 μM. The buffer contained 250 mM KCl, 50 mM Tris-HCl (at pH 7.5). The following quadruplex DNA were tested: c-kit1, VEGF, bcl-2 2345, and TBA. Duplex DNA (8 bp AT) was also tested. The sample was first heated up to 95° C. for 5 min without the ligand and then cooled down to room temperature in 15 min. The ligand was then added and the mixture was incubated at 4° C. for ˜12 h before recording the data. In case of Triazene-1 and Triazene-2, the sample mixture contained 1% DMSO.

22mer hTel Na^+ = experiment: ITC titration with hTel G-quadruplex, Na+ form; format: binding, human; conditions: Na+ form of hTel22
Description: Isothermal titration calorimetry. ITC experiments were performed using a VP-ITC calorimeter (GE-Healthcare). A typical ITC experiment involved as many as addition of 28 (10 μL) injections of as high as 1 mM ligand solutions into ˜1.5 mL of a dilute DNA solution (10 μM). Corrected titration curves were achieved by subtracting the blank titration data from the ITC-data for the ligand-DNA titrations. Corrected ITC titrations were fit with a nonlinear regression algorithm again using the CHASM ITC data analysis program developed in our laboratory.
[…] Approximately 2 mL of the oligonucleotide was dialyzed (1000 Mw cutoff membrane) against three changes of buffer solution (1 L, 24 h each) at 4° C. The concentrations of stock DNA solutions were verified using UV-Vis. G-Quadruplex DNAs were annealed by quickly heating to sample to 100° C., holding at 100° C. for ten minutes then slowly cooling to 5° C. over three hours period. Molar extinction coefficient of the DNAs were determined using a nearest-neighbor method for single stranded DNA. The extinction coefficients at 260 nm for the WT 27-mer bcl-2, WT 24-mer c-myc, WT 22-mer human telomere hTel sequences are 267,200 M^−1cm^−1, 248,100 M^−1cm^−1, and 228,500 M^−1cm^−1 respectively. […]

NBM = experiment: WST-1 IC50 determination, normal bone marrow; format: cell-based, human; conditions: normal bone marrow, 72 hours, WST-1
Description: Cell lines and culturing. The following human cell lines were purchased from ATCC (ATCC, Manassas, Va.): prostate cancer cells (PC-3), triple negative breast cancer cells (MDA-MB-231), ovarian cancer cells (OVCAR-3), normal bone marrow (NBM) and normal fibroblast cells (MCR5A). MDA-MB-231 cells were grown at 37° C. with 5% CO2 atmosphere with DMEM (Life technologies, Carlsbad, Calif.) supplemented with heat-inactivated 10% (V/V) fetal bovine serum. OVCAR-3 and PC-3 cells were grown at 37° C. with 5% CO2 atmosphere with RPMI (Life technologies, Carlsbad, Calif.) supplemented with heat-inactivated 10% (V/V) fetal bovine serum. Cell lines were grown and maintained according to ATCC recommendations.
IC50 determination. Cell lines were seeded into 96-well plates the afternoon prior to treatment. Cell seeding number was determined by growing cells in log phase growth during drug treatment. Approximately 18 hours later, compounds were semi-serially diluted in dimethyl sulfoxide (DMSO) and then growth medium, and added to cells. Plates were incubated for 72 hours prior to addition of WST-1 (Promega, Madison Wis.). Plates were read after 4 additional hours of incubation at 37° C. using a Bio-Tek Synergy HT plate reader (Bio-Tek, Winooski, Vt.). Data was analyzed, graphed and IC50s generated using GraphPad Prism Software (Graphpad, La Jolla, Calif.).
IC50 determination: For the determination of IC50 for the azolamide class, the same protocol as described previously was followed.

[1] = system: telomerase activity in MDA-MB-231; experiment: Telomerase activity assay (TRAPeze XL) in treated cells; format: cell-based, human
Description: Telomerase Activity Assay. MDA-MB-231 cells were routinely cultured in DMEM with 10% FBS and 1% L-glutamine. The evening prior to treatment, actively growing MDA-MB-231 cells were sub-cultured and seeded into T-25 flasks at 2×10^5 cells/flask. […] At 48 and 72 hours after treatment, cells were harvested, washed with PBS, and pelleted. Cell pellets were resuspended in 200 μl CHAPS lysis buffer with 200 units/mL RNase inhibitor, mixed by pipetting, and incubated on ice for 30 minutes. Lysates were then centrifuged at 12,000×g for 20 minutes at 4° C., and supernatants were collected, snap frozen, and stored at −80° C. until analysis. Telomerase activity was assayed using a fluorescence-based TRAPeze XL telomerase detection kit (Intergen, Purchase, N.Y.). According to manufacturer, lysates (1000 cell-equivalents) were mixed with TRAPeze XL reaction mix containing Amplifuor primers and incubated at 30° C. for 30 min to allow the elongation of “TS” primer by telomerase. Amplified telomerase products were quantitated with a fluorescence plate reader. Telomerase activity (in TPG units) was calculated by comparing the ratio of telomerase products to an internal standard for each lysate, as described by the manufacturer. Each unit of TPG (Total Product Generated) corresponds to the number of TS primers extended with at least 3 telomeric repeats by telomerase in the extract in a 30 minute incubation at 30° C.

24mer WT c-myc = experiment: CD titration with c-myc G-quadruplex; format: binding; conditions: K+ Tris buffer
Description: Circular Dichroism (CD). CD titration experiments were performed with an Olis DSM-20 spectropolarimeter (Bogart, Ga.). All measurements were done at 25° C. using a 1 cm quartz cuvette and covering a spectral range of 220-420 nm. […] Stock solutions of the ligand were added in small amount to reach a molar ratio of 1:1, 3:1, 6:1, and 10:1 of ligand per equivalence of DNA.

N=C(N)c1ccc(NN=Nc2ccccc2)cc1 [DMZ1]
binding less than DMZ (G-quadruplexes): 4-5 orders of magnitude
shift of absorption spectrum upon DNA titration (8 bp AT duplex DNA): no such shift was observed
ITC interaction heat (22mer hTel Na^+): calorimetrically silent

N=C(N)c1ccc(N=NNc2cccc(C#Cc3ccc(F)cc3)c2)cc1 [DMZ9]
IC50 (NBM; read-out: IC50 ± SD, NBM): 5.6 µM
inhibition of telomerase activity ([1]; 11 μM, 48 h or 72 h): up to 50%

N=C(N)c1ccc(/N=N/Nc2ccccc2C#Cc2ccc(F)cc2)cc1 [DMZ13]
IC50 ± SD, NBM (NBM): NE (NE means not effective. Cell viability was the same or greater than 75% of the DMSO control at 20 μM compound concentration.)
inhibition of telomerase activity ([1]; 12.4 μM, 48 h): about 20%
inhibition of telomerase activity ([1]; 12.4 μM, 72 h): about 30%

N=C(N)c1ccc(/N=N/Nc2ccc(C(=N)N)cc2)cc1 [DMZ, Diminazene aceturate, reference compound]
CD signal of G-quadruplex upon complexation (24mer WT c-myc): dramatically decreased
ITC interaction heat (22mer hTel Na^+): calorimetrically silent
